Measurements reported in patent EP0181109B1, “N6-benzopyrano- and benzothiopyrano-adenosines” (WARNER-LAMBERT COMPANY, priority 1984, dated 1986).

System: conscious rat
Test: Antihypertensive evaluation (AHP3): direct monitoring of aortic blood pressure and heart rate from conscious rats
Type: in vivo
Protocol: This test procedure is described in the following paragraphs.
The continuous monitoring of pulsatile blood pressure (BP) from unrestrained conscious rats surgically equipped with polyethylene cannulas was accomplished by means of a computer assisted data capture scheme (CADCS). The basic elements of the methodology are the cannulation procedure and the CADCS.
Cannulation Procedure: Rats were anesthetized with Telazol (1:1 tiletamine HCI and zolazepam HCI); 20-40 mg/kg IM and the descending aorta exposed via a midline incision. Cannulas fabricated from polyethylene tubing were inserted into the aorta via an undersized puncture hole below the renal arteries. The puncture hole was made by a 23 G disposable needle with a section of the aorta clamped off above and below the puncture site. The cannulas, consisting of a PE100 (0.86 mm ID) body and a PE50 (0.58 mm ID) tip, were attached to a trocar, inserted through the psoas muscle, and passed subcutaneously along the midline of the back and externalized between the ears. The cannulas were anchored to the psoas muscle and between the scalulae (3-0 green braided suture). The midline incision was closed in two steps (muscle first, skin second) using continuous over-and over sutures (4-0 chronic). Each rat was then given penicillin 30,000 units subcutaneously (Penicillin G Procaine Sterile Suspension).
The rats were fitted with a harness-spring-swivel assembly designed to protect the cannula and to provide the rat relative freedom of movement. The harnesses were fabricated from nylon hook and loop tape cemented to a metal plate to which spring wires (18-8 stainless steel), were attached to brass swivels. Each polyethylene cannula was channeled through a spring and connected through a swivel to a pressure transducer (Model P23Gb; Statham Instruments; Hato Rey, Puerto Rico) and an infusion pump (Sage model 234-7; Orion Research, Cambridge, MA) by means of PE100 tubing. While on test, each rat received a continuous slow infusion of heparinized saline solution (approximately 400 I or 40 units of heparin per 24 hour period) to prevent clot formation. Additional "flushes" of the cannula with heparinized saline were carried out when the aortic pulse pressure (systolic minus diastolic) was less than 25 mm Hg.
CADCS: The pulsatile blood pressure and heart rate of each of 32 rats was monitored every minute by means of two in-laboratory microcomputers communicating directly with a data concentrator computer. The data were first stored on the data concentrator disk and the transferred to a magnetic tape for analysis and report generation by the main research computer. The overall scheme involved modulating the primary signal from the pressure transducer, generating the primary data set of the one-minute values for systolic, diastolic, and mean blood pressures and heart rate by the in-lab microcomputer and the storage, analysis, and report generation by the main research computer.
The transducers were connected to analog signal conditioning modules. The modules provided a regulated excitation voltage for the transducers, amplification as required to interface the microprocessors and an active low pass filter to compensate for the pressure wave form distortion produced by the fexible, fluid filled, narrow cannula. The distortion was 22-26 Hz and this provided a reliable estimate of both systolic and diastolic blood pressure.
The microcomputers (one for each of the two groups of 16 rats) were connected to the input components through the module interface units, an analog-to-digital converter for the pressure wave form signal and the digital inputs for the dose and event marker switches. The microcomputer controlled the sequential acquisition of data from the modular interface units through an internal synchronous time-of- day clock/time base generator. […]

[1] = 10 mg/kg, Hour 3, conscious rat
[2] = 10 mg/kg, Hour 5, conscious rat

Question: For `COc1cc(OC)c2c(c1)OC(C)(C)CC2Nc1ncnc2c1ncn2[C@@H]1O[C@H](CO)[C@@H](O)[C@H]1O` (stereo partly drawn) [Example 14], which MAP change [1] is on record?
Answer: The MAP change was 0%.

Question: `Cc1ccc2c(c1C)OC(C)C(Nc1ncnc3c1ncn3[C@@H]1O[C@H](CO)[C@@H](O)[C@H]1O)C2` (stereo partly drawn) [Example 11] was tested. Which HR change [1] did it give?
Answer: Its HR change is 0%.

Question: What about the HR change [2] of the same molecule?
Answer: The HR change was 0%.

Question: How did the HR change (10 mg/kg, Hour 7, conscious rat) turn out when `Cc1cc2c(cc1C)OCC(Nc1ncnc3c1ncn3[C@@H]1O[C@H](CO)[C@@H](O)[C@H]1O)C2` (stereo partly drawn) [Example 9, N^6-[6,7-Dimethyl-3-chromanylamino]adenosine] was run?
Answer: Its HR change is 0%.

Question: `OC[C@H]1O[C@@H](n2cnc3c(NC4COc5c(Cl)cccc5C4)ncnc32)[C@H](O)[C@@H]1O` (stereo partly drawn) [Example 5] was tested. Which HR change [2] did it give?
Answer: Its HR change is 0%.

Question: `Cc1ccc2c(c1C)OCC(Nc1ncnc3c1ncn3[C@@H]1O[C@H](CO)[C@@H](O)[C@H]1O)C2` (stereo partly drawn) [Example 10, N^6-[7,8-Dimethyl-3-chromanylamino]adenosine] was tested. Which HR change (3 mg/kg, Hour 5, conscious rat) did it give?
Answer: The HR change was 0%.
